# Test results published in patent USRE48711E1, “Apoptosis signal-regulating kinase inhibitors” (Gilead Sciences, Inc., priority 2009, dated 2021).
# Biological target: ASK1 (Apoptosis Signal-Regulating Kinase 1) (Homo sapiens (Human), UniProt Q99683)
# Experiment: ASK1 (Apoptosis Signal-Regulating Kinase 1) TR-FRET Kinase Assay (Biochemical IC50)
# Conditions: TR-FRET, biotin-MBP substrate, 20 min pre-incubation, ATP added as 300 μM solution
# Chain of ASK1 (Apoptosis Signal-Regulating Kinase 1) (Q99683 649-946): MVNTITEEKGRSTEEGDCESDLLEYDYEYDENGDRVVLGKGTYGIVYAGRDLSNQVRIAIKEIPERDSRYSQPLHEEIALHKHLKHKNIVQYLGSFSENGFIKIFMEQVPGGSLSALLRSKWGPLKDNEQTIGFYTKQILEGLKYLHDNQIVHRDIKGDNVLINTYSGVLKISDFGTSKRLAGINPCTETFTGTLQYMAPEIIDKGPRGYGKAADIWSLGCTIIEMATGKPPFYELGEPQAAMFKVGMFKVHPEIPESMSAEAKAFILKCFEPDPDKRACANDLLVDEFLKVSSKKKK
row,SMILES,IC50
1,"CSc1ccc(-c2ccnc(C(=O)Nc3cccc(-c4nncn4C4CC4)c3)c2)cn1 [Example 131, N-(3-(4-cyclopropyl-4H-1,2,4-triazol-3-yl)phenyl)-6-(methylthio)-3,4′-bipyridine-2′-carboxamide]",11 nM
2,"O=C(Nc1cccc(-c2nncn2C2CC2)c1)c1cc(-c2ccc(CC3CC3)nc2)ccn1 [Example 268, N-(3-(4-cyclopropyl-4H-1,2,4-triazol-3-yl)phenyl)-6-(cyclopropylmethyl)-3,4′-bipyridine-2′-carboxamide]",13 nM
3,"Cc1ccc2c(-c3ccc(C4CC4)nc3)cc(C(=O)Nc3cccc(-c4nncn4C4CC4)n3)nc2c1C [Example 236, N-(6-(4-cyclopropyl-4H-1,2,4-triazol-3-yl)pyridin-2-yl)-4-(6-cyclopropylpyridin-3-yl)-7,8-dimethylquinoline-2-carboxamide]",139 nM
4,"O=C(Nc1cccc(-c2nncn2C2CC2)n1)c1ccc(Cl)c(-n2cnc(C3CC3)c2)c1 [Example 227, 4-chloro-3-(4-cyclopropyl-1H-imidazol-1-yl)-N-(6-(4-cyclopropyl-4H-1,2,4-triazol-3-yl)pyridin-2-yl)benzamide]",8 nM
5,"O=C(Nc1cc(F)cc(-c2nncn2C2CC2)c1)c1cc(-c2cccnc2)ccn1 [Example 169, N-(3-(4-cyclopropyl-4H-1,2,4-triazol-3-yl)-5-fluorophenyl)-3,4′-bipyridine-2′-carboxamide]",157 nM
6,"O=C(Nc1cccc(-c2nncn2C2CC2)c1)c1cc(-c2cnc(C3CC3)c(F)c2)ccn1 [Example 134, 6-cyclopropyl-N-(3-(4-cyclopropyl-4H-1,2,4-triazol-3-yl)phenyl)-5-fluoro-3,4′-bipyridine-2′-carboxamide]",34 nM
7,"CN1CCc2c(ncn2-c2ccnc(C(=O)Nc3cccc(-c4nncn4C4CC4)n3)c2)C1C(F)(F)F (stereo not drawn) [Example 256, N-(6-(4-cyclopropyl-4H-1,2,4-triazol-3-yl)pyridin-2-yl)-4-(5-methyl-4-(trifluoromethyl)-4,5,6,7-tetrahydro-1H-imidazo[4,5-c]pyridin-1-yl)picolinamide]",4 nM
8,"O=C(Nc1cccc(-c2nncn2C2CC2)c1F)c1cc(-c2cccnc2)ccn1 [Example 157, N-(3-(4-cyclopropyl-4H-1,2,4-triazol-3-yl)-2-fluorophenyl)-3,4′-bipyridine-2′-carboxamide]",38 nM
9,"CC(C)Oc1ccc(-c2ccnc(C(=O)Nc3cccc(-c4nncn4C4CC4)c3)c2)cn1 [Example 94, N-(3-(4-cyclopropyl-4H-1,2,4-triazol-3-yl)phenyl)-6-isopropoxy-3,4′-bipyridine-2′-carboxamide]",61 nM
10,"O=C(Nc1cccc(-c2nncn2C2CC2)n1)c1cccc(-n2cc(C3CC3)nn2)c1 [Example 269, 3-(4-cyclopropyl-1H-1,2,3-triazol-1-yl)-N-(6-(4-cyclopropyl-4H-1,2,4-triazol-3-yl)pyridin-2-yl)benzamide]",23 nM
11,"O=C(Nc1cccc(-c2nncn2C2CC2)c1)c1cc(-n2cnc(C(F)(F)C(F)(F)F)c2)ccn1 [Example 198, N-(3-(4-cyclopropyl-4H-1,2,4-triazol-3-yl)phenyl)-4-(4-(perfluoroethyl)-1H-imidazol-1-yl)picolinamide]",19 nM
12,"O=C(Nc1ccnc(-c2nncn2C2CC2)c1)c1cc(-c2ccc(C3CC3)nc2)ccn1 [Example 152, 6-cyclopropyl-N-(2-(4-cyclopropyl-4H-1,2,4-triazol-3-yl)pyridin-4-yl)-3,4′-bipyridine-2′-carboxamide]",286 nM
13,"Nc1ncc(-c2ccnc(C(=O)Nc3cccc(-c4nncn4C4CC4)c3)c2)cn1 [Example 25, 4-(2-aminopyrimidin-5-yl)-N-(3-(4-cyclopropyl-4H-1,2,4-triazol-3-yl)phenyl)picolinamide]",13 nM
14,"COc1ccc(-n2cnc(C3CC3)c2)cc1C(=O)Nc1cccc(-c2nncn2C2CC2)c1 [Example 272, 5-(4-cyclopropyl-1H-imidazol-1-yl)-N-(3-(4-cyclopropyl-4H-1,2,4-triazol-3-yl)phenyl)-2-methoxybenzamide]",11 nM
15,"CC(C)NS(=O)(=O)c1ccc(-c2ccnc(C(=O)Nc3cccc(-c4nncn4C4CC4)c3)c2)cc1 [Example 99, N-(3-(4-cyclopropyl-4H-1,2,4-triazol-3-yl)phenyl)-4-(4-(N-isopropylsulfamoyl)phenyl)picolinamide]",17 nM
16,"Cn1cnnc1-c1cccc(NC(=O)c2cc(-c3cccnc3)ccn2)c1 [Example 9, N-(3-(4-methyl-4H-1,2,4-triazol-3-yl)phenyl)-3,4′-bipyridine-2′-carboxamide]",42 nM
17,"CCC(C)n1cnnc1-c1cccc(NC(=O)c2cc(-c3ccc(C4CC4)nc3)ccn2)c1 (stereo not drawn) [Example 229, N-(3-(4-sec-butyl-4H-1,2,4-triazol-3-yl)phenyl)-6-cyclopropyl-3,4′-bipyridine-2′-carboxamide]",101 nM
18,"CC(C)n1cnnc1-c1cccc(NC(=O)c2cc(-c3ccc(C4CC4)nc3)ccn2)c1 [Example 219, 6-cyclopropyl-N-(3-(4-isopropyl-4H-1,2,4-triazol-3-yl)phenyl)-3,4′-bipyridine-2′-carboxamide]",16 nM

row,SMILES,IC50
1,"NS(=O)(=O)c1ccc(-c2ccnc(C(=O)Nc3cccc(-c4nncn4C4CC4)c3)c2)cc1 [Example 97, N-(3-(4-cyclopropyl-4H-1,2,4-triazol-3-yl)phenyl)-4-(4-sulfamoylphenyl)picolinamide]",81 nM
2,"O=C(Nc1cccc(-c2nncn2C2CC2)c1)c1cc(-c2cnc3c(c2)CNCC3)ccn1 [Example 154, N-(3-(4-cyclopropyl-4H-1,2,4-triazol-3-yl)phenyl)-4-(5,6,7,8-tetrahydro-1,6-naphthyridin-3-yl)picolinamide]",34 nM
3,"O=C(Nc1cccc(-c2nncn2C2CC2)c1)c1cc(-c2cnccn2)ccn1 [Example 87, N-(3-(4-cyclopropyl-4H-1,2,4-triazol-3-yl)phenyl)-4-(pyrazin-2-yl)picolinamide]",69 nM
4,"CNS(=O)(=O)c1ccc(-c2ccnc(C(=O)Nc3cccc(-c4nncn4C4CC4)c3)c2)cc1 [Example 98, N-(3-(4-cyclopropyl-4H-1,2,4-triazol-3-yl)phenyl)-4-(4-(N-methylsulfamoyl)phenyl)picolinamide]",7 nM
5,"O=C(Nc1cccc(-c2nncn2C2CC2)n1)c1cc(-n2cnc(C(F)(F)C(F)(F)F)c2)ccn1 [Example 199, N-(6-(4-cyclopropyl-4H-1,2,4-triazol-3-yl)pyridin-2-yl)-4-(4-(perfluoroethyl)-1H-imidazol-1-yl)picolinamide]",9 nM
6,"O=C(Nc1cccc(-c2cncn2C2CC2)c1)c1cc(-c2cnc3ccccc3c2)ccn1 [Example 108, N-(3-(1-cyclopropyl-1H-imidazol-5-yl)phenyl)-4-(quinolin-3-yl)picolinamide]",41 nM
7,"CCc1cncc(-c2ccnc(C(=O)Nc3cccc(-c4nncn4C4CC4)c3)c2)c1 [Example 146, N-(3-(4-cyclopropyl-4H-1,2,4-triazol-3-yl)phenyl)-5-ethyl-3,4′-bipyridine-2′-carboxamide]",8 nM
8,"CN1CCC(c2ccc(-c3ccnc(C(=O)Nc4cccc(-c5nncn5C5CC5)c4)c3)cn2)C1=O (stereo not drawn) [Example 110, N-(3-(4-cyclopropyl-4H-1,2,4-triazol-3-yl)phenyl)-6-(1-methyl-2-oxopyrrolidin-3-yl)-3,4′-bipyridine-2′-carboxamide]",8 nM
9,"NC(=O)c1cncc(-c2ccnc(C(=O)Nc3cccc(-c4nncn4C4CC4)c3)c2)c1 [Example 64, N2′-(3-(4-cyclopropyl-4H-1,2,4-triazol-3-yl)phenyl)-3,4′-bipyridine-2′,5-dicarboxamide]",17 nM
10,"O=C(Nc1cccc(-c2nncn2C2CC2)c1)c1cc(-c2cnc3ccoc3c2)ccn1 [Example 142, N-(3-(4-cyclopropyl-4H-1,2,4-triazol-3-yl)phenyl)-4-(furo[3,2-b]pyridin-6-yl)picolinamide]",11 nM
11,"CC(C)c1cn(-c2cccc(C(=O)Nc3cccc(-c4nncn4C4CC4)n3)c2)cn1 [Example 193, N-(6-(4-cyclopropyl-4H-1,2,4-triazol-3-yl)pyridin-2-yl)-3-(4-isopropyl-1H-imidazol-1-yl)benzamide]",5 nM
12,"C[C@H]1C[C@@H]1n1cnnc1-c1cccc(NC(=O)c2cc(-c3cccnc3)ccn2)c1 [Example 55, N-(3-(4-((1S,2S)-2-methylcyclopropyl)-4H-1,2,4-triazol-3-yl)phenyl)-3,4′-bipyridine-2′-carboxamide]",24 nM
13,"O=C(Nc1cccc(-c2nncn2C2CCC2)c1)c1cc(-c2cccnc2)ccn1 [Example 39, N-(3-(4-cyclobutyl-4H-1,2,4-triazol-3-yl)phenyl)-3,4′-bipyridine-2′-carboxamide]",63 nM
14,"O=C(Nc1cccc(-c2nncn2C2CC2)c1)c1cc(-c2ccc(OC3CCC3)nc2)ccn1 [Example 95, 6-cyclobutoxy-N-(3-(4-cyclopropyl-4H-1,2,4-triazol-3-yl)phenyl)-3,4′-bipyridine-2′-carboxamide]",31 nM
15,"COC(c1cn(-c2cccc(C(=O)Nc3cccc(-c4nncn4C4CC4)n3)c2)cn1)C(F)(F)F (stereo not drawn) [Example 235, N-(6-(4-cyclopropyl-4H-1,2,4-triazol-3-yl)pyridin-2-yl)-3-(4-(2,2,2-trifluoro-1-methoxyethyl)-1H-imidazol-1-yl)benzamide]",15 nM
16,"O=C(Nc1cccc(-c2nncn2C2CC2)c1)c1cc(-c2ccc(NC3CC3)nc2)ccn1 [Example 120, N-(3-(4-cyclopropyl-4H-1,2,4-triazol-3-yl)phenyl)-6-(cyclopropylamino)-3,4′-bipyridine-2′-carboxamide]",6 nM
17,"CS(=O)(=O)c1cccc(-c2ccnc(C(=O)Nc3cccc(-c4nncn4C4CC4)c3)c2)c1 [Example 77, N-(3-(4-cyclopropyl-4H-1,2,4-triazol-3-yl)phenyl)-4-(3-(methylsulfonyl)phenyl)picolinamide]",79 nM
18,"COc1ncc(-c2ccnc(C(=O)Nc3cccc(-c4nncn4C4CC4)c3)c2)cn1 [Example 45, N-(3-(4-cyclopropyl-4H-1,2,4-triazol-3-yl)phenyl)-4-(2-methoxypyrimidin-5-yl)picolinamide]",9 nM
